Data reported in patent US20030144234A1, “Methods for the treatment of chronic pain and compositions therefor” (priority 2001, published 2003).
Starred links: 1 amine or outer side, 2 acyl side, 3 side chain; linkers in the order of their positions; H or OH if unused. Non-standard residues stand in square brackets, D forms with d. Residues, ends and D or L forms follow the SMILES beside them. *: point of attachment. hPhe = N[C@@H](CCc1ccccc1)C(=O)O; Morpholide = C1CN(*)CCO1; CO = O=C([*:1])[*:2]; CH2F = FC*

Assays:
[1] = tested on: CCI model of chronic neuropathic pain; experiment: Established mechanical hyperalgesia in the CCI model of chronic neuropathic pain, single oral dose (paw withdrawal threshold); type: in vivo, Wistar rats; conditions: for % Reversal of Predose Hyperalgesia: CCI model day 14
Description: In the Chronic Constriction Injury (CCl) model (Bennett, G. J. and Xie, Y. K. Pain (1988) 33: 87-107) rats are anaesthetised and a small incision is made mid-way up one thigh (usually the left) to expose the sciatic nerve. The nerve is cleared of surrounding connective tissue and four ligatures of 4/0 chromic gut are tied loosely around the nerve with approximately 1 mm between each, so that the ligatures just barely constrict the surface of the nerve. The wound is closed with sutures and clips as described above. In sham animals the sciatic nerve is exposed but not ligated and the wound closed as in nonsham animals. In all chronic pain models (inflammatory and neuropathic) mechanical hyperalgesia is assessed by measuring paw withdrawal thresholds of both hindpaws to an increasing pressure stimulus using an Analgesymeter (Ugo-Basile, Milan). Mechanical allodynia is assessed by measuring withdrawal thresholds to non-noxious mechanical stimuli applied with von Frey hairs to the plantar surface of both hindpaws. Thermal hyperalgesia is assessed by measuring withdrawal latencies to a noxious thermal stimulus applied to the underside of each hindpaw. With all models, mechanical hyperalgesia and allodynia and thermal hyperalgesia develop within 1-3 days following surgery and persist for at least 50 days. For the assays described herein, drugs may be applied before and after surgery to assess their effect on the development of hyperalgesia, particularly approximately 14 days following surgery, to determine their ability to reverse established hyperalgesia. The percentage reversal of hyperalgesia is calculated as follows: [formula] In the experiments disclosed herein, Wistar rats (male) are employed in the pain models described above. Rats weigh approximately 120-140 grams at the time of surgery. All surgery is performed under enflurane/O2 inhalation anaesthesia. In all cases the wound is closed after the procedure and the animal allowed to recover. In all pain models employed, after a few days in all but the sham operated animals, a marked mechanical and thermal hyperalgesia and allodynia develops in which there is a lowering of pain threshold and an enhanced reflex withdrawal response of the hind-paw to touch, pressure or thermal stimuli. […] In the majority of animals the toes of the affected hind paw are held together and the foot turned slightly to one side; in some rats the toes are also curled under. The gait of the ligated rats varies, but limping is uncommon. […] The rats tend to be very sensitive to touch and may vocalise. Otherwise the general health an condition of the rats is good. Rats are subjected to the surgical procedures according to the CCl chronic pain model described above. Paw withdrawal thresholds are measured prior to surgery, 14 days later when hyperalgesia is established and then at 1, 3 and 6 hours following a single oral gavage dose of compound B. Results are provided in Table 2, below. Each time point represents data from 6 animals per group. Vehicle control: PEG/methyl cellulose (0.5%)+Tween 80 (0.25%)(20:80), 1 ml p.o.

[2] = tested on: FCA-induced model of chronic inflammatory pain; experiment: Mechanical hyperalgesia in the FCA-induced model of chronic inflammatory pain; type: in vivo, rats; conditions: 100 mg/kg p.o., 24 hours after FCA induction, data not shown
Method: The Complete Freund's Adjuvant-induced mechanical hyperalgesia may be used as a model of chronic inflammatory pain (Stein, C. et al. Pharmacol. Biochem. Behav. (1988) 31:445-451). In this model, typically a male Sprague-Dawley orWistar rat (200-250 g) receives an intraplantar injection of 25 μl complete Freund's adjuvant into one hind paw. A marked inflammation occurs in this hind paw. Drugs are generally administered for evaluation of efficacy, 24 hours after the inflammatory insult, when mechanical hyperalgesia is considered fully established. In all chronic pain models (inflammatory and neuropathic) mechanical hyperalgesia is assessed by measuring paw withdrawal thresholds of both hindpaws to an increasing pressure stimulus using an Analgesymeter (Ugo-Basile, Milan). Mechanical allodynia is assessed by measuring withdrawal thresholds to non-noxious mechanical stimuli applied with von Frey hairs to the plantar surface of both hindpaws. Thermal hyperalgesia is assessed by measuring withdrawal latencies to a noxious thermal stimulus applied to the underside of each hindpaw. With all models, mechanical hyperalgesia and allodynia and thermal hyperalgesia develop within 1-3 days following surgery and persist for at least 50 days. […] The percentage reversal of hyperalgesia is calculated as follows: [formula] […]

[3] = tested on: Seltzer model of chronic neuropathic pain; experiment: Established mechanical hyperalgesia in the Seltzer model of chronic neuropathic pain, single oral dose; type: in vivo, Wistar rats; design: effect on established mechanical hyperalgesia: unit not given here
cathepsin S [4] = target: T1, cathepsin S (Homo sapiens, UniProt P25774); conditions: per U.S. Pat. No. 4,518,528; cited from earlier work
T1 sequence (P25774 115-331): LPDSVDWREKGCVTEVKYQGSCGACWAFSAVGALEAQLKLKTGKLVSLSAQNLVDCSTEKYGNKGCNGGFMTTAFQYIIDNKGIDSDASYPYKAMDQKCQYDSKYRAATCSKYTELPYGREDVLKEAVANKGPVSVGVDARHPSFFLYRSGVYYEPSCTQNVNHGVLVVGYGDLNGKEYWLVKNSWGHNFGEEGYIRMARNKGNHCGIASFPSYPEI

[5] = tested on: CCI model of chronic neuropathic pain; experiment: Mechanical hyperalgesia in the CCI model, twice daily oral dosing throughout development of hyperalgesia; type: in vivo, Wistar rats
Description: In the Chronic Constriction Injury (CCl) model (Bennett, G. J. and Xie, Y. K. Pain (1988) 33: 87-107) rats are anaesthetised and a small incision is made mid-way up one thigh (usually the left) to expose the sciatic nerve. The nerve is cleared of surrounding connective tissue and four ligatures of 4/0 chromic gut are tied loosely around the nerve with approximately 1 mm between each, so that the ligatures just barely constrict the surface of the nerve. The wound is closed with sutures and clips as described above. In sham animals the sciatic nerve is exposed but not ligated and the wound closed as in nonsham animals. In all chronic pain models (inflammatory and neuropathic) mechanical hyperalgesia is assessed by measuring paw withdrawal thresholds of both hindpaws to an increasing pressure stimulus using an Analgesymeter (Ugo-Basile, Milan). Mechanical allodynia is assessed by measuring withdrawal thresholds to non-noxious mechanical stimuli applied with von Frey hairs to the plantar surface of both hindpaws. Thermal hyperalgesia is assessed by measuring withdrawal latencies to a noxious thermal stimulus applied to the underside of each hindpaw. With all models, mechanical hyperalgesia and allodynia and thermal hyperalgesia develop within 1-3 days following surgery and persist for at least 50 days. For the assays described herein, drugs may be applied before and after surgery to assess their effect on the development of hyperalgesia, particularly approximately 14 days following surgery, to determine their ability to reverse established hyperalgesia. In the experiments disclosed herein, Wistar rats (male) are employed in the pain models described above. Rats weigh approximately 120-140 grams at the time of surgery. All surgery is performed under enflurane/O2 inhalation anaesthesia. In all cases the wound is closed after the procedure and the animal allowed to recover. In all pain models employed, after a few days in all but the sham operated animals, a marked mechanical and thermal hyperalgesia and allodynia develops in which there is a lowering of pain threshold and an enhanced reflex withdrawal response of the hind-paw to touch, pressure or thermal stimuli. […] In the majority of animals the toes of the affected hind paw are held together and the foot turned slightly to one side; in some rats the toes are also curled under. The gait of the ligated rats varies, but limping is uncommon. […] The rats tend to be very sensitive to touch and may vocalise. Otherwise the general health an condition of the rats is good. Data disclosed herein indicate that compound B can reverse the mechanical hyperalgesia induced in the CCl model of neuropathic pain in a dose dependent manner with a D50 in the range 30-100 mg/kg, with up to 70% reversal at 100 mg/kg at 1 hour post dosing. […] In the twice daily study, paw withdrawal thresholds were measured prior to surgery and then daily 3 hours following the second oral dosing with compound B. The last dose was given on day 13. Each time point in Table 3 represents data from 6 animals per group. Vehicle control: PEG/methyl cellulose (0.5%)+Tween 80 (0.25%)(20:80), 1 ml p.o.

cathepsin S [6] = target: T1, cathepsin S; experiment: Cathepsin S inhibitory activity (stated in words); type: biochemical
cathepsin K = target: T2, cathepsin K (Homo sapiens, UniProt P43235); experiment: Cathepsin K inhibitory activity (stated in words); type: biochemical
T2 sequence (P43235 115-329): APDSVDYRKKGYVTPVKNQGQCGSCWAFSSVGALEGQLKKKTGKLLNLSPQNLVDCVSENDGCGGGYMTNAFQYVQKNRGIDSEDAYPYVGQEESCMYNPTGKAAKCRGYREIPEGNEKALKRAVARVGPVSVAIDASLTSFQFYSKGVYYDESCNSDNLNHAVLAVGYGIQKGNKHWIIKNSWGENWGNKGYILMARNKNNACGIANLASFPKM

Question: With `O=C(CF)[C@H](CCc1ccccc1)NC(=O)[C@H](Cc1ccccc1)NC(=O)N1CCOCC1` [Compound B, 3-[(4-morpholinylcarbonyl)-phenylalanylamido]-1-fluoro-5-phenyl-2-pentanone] ({Morpholide-CO}-Phe-[hPhe]-CH2F) as the compound, how does the “% Reversal of Predose Hyperalgesia” value ([1]; 10 mg/kg single oral dose, 1 hr post dose) read?
Answer: The value was 26.16%.

Question: What about the “% Reversal of Predose Hyperalgesia” value ([1]; 10 mg/kg single oral dose, 3 hrs post dose) of the same compound?
Answer: Its value is 38.19%.

Question: And the “% Reversal of Predose Hyperalgesia” value ([1]; 10 mg/kg single oral dose, 6 hrs post dose)?
Answer: The value was 18.29%.

Question: And the “% Reversal of Predose Hyperalgesia” value ([1]; 30 mg/kg single oral dose, 1 hr post dose)?
Answer: Its value is 40.97%.

Question: What about the “% Reversal of Predose Hyperalgesia” value ([1]; 30 mg/kg single oral dose, 3 hrs post dose) of the same compound?
Answer: Its value is 38.89%.

Question: And the “% Reversal of Predose Hyperalgesia” value ([1]; 30 mg/kg single oral dose, 6 hrs post dose)?
Answer: The value was 13.89%.

Question: And the “% Reversal of Predose Hyperalgesia” value ([1]; 100 mg/kg single oral dose, 1 hr post dose)?
Answer: Its value is 76.49%.

Question: And the “% Reversal of Predose Hyperalgesia” value ([1]; 100 mg/kg single oral dose, 3 hrs post dose)?
Answer: Its value is 55.06%.

Question: What about the “% Reversal of Predose Hyperalgesia” value ([1]; 100 mg/kg single oral dose, 6 hrs post dose) of the same compound?
Answer: The value was 29.76%.

Question: And the “reversal of mechanical hyperalgesia” value ([1]; CCI model, 100 mg/kg, 1 hour post dosing)?
Answer: The value was “up to 70%”.

Question: What about the “D50 for reversal of mechanical hyperalgesia” value ([1]; CCI model, single oral dose) of the same compound?
Answer: Its value is 30 to 100 mg/kg.

Question: What about the “maximal reversal of mechanical hyperalgesia” value [2] of the same compound?
Answer: Its value is 46%.

Question: And the “effect on established mechanical hyperalgesia” value (shortened to “effect”) ([3]; Cmpd B 30 mg/kg single oral dose, 1 hr)?
Answer: Its value is 33.47.

Question: And the “effect” value ([3]; Cmpd B 30 mg/kg single oral dose, 3 hrs)?
Answer: Its value is 41.57.

Question: And the “effect” value ([3]; Cmpd B 30 mg/kg single oral dose, 6 hrs)?
Answer: Its value is 11.97.

Question: What about the “inhibition of cathepsin S in vitro (in words)” value (cathepsin S [4]) of the same compound?
Answer: The value was “known to inhibit”.

Question: And the “Mean Paw pressure withdrawal threshold” value ([5]; 30 mg/kg orally twice daily, day 1 post surgery, 3 hours after second dose)?
Answer: The value was 100.00 g.

Question: What about the “Mean Paw pressure withdrawal threshold” value ([5]; 30 mg/kg orally twice daily, day 2 post surgery, 3 hours after second dose) of the same compound?
Answer: Its value is 70.83 g.

Question: What about the “Mean Paw pressure withdrawal threshold” value ([5]; 30 mg/kg orally twice daily, day 3 post surgery, 3 hours after second dose) of the same compound?
Answer: The value was 79.17 g.

Question: And the “Mean Paw pressure withdrawal threshold” value ([5]; 30 mg/kg orally twice daily, day 4 post surgery, 3 hours after second dose)?
Answer: Its value is 80.00 g.

Question: And the “Mean Paw pressure withdrawal threshold” value ([5]; 30 mg/kg orally twice daily, day 6 post surgery, 3 hours after second dose)?
Answer: The value was 80.80 g.

Question: And the “Mean Paw pressure withdrawal threshold” value ([5]; 30 mg/kg orally twice daily, day 8 post surgery, 3 hours after second dose)?
Answer: Its value is 80.00 g.

Question: What about the “Mean Paw pressure withdrawal threshold” value ([5]; 30 mg/kg orally twice daily, day 10 post surgery, 3 hours after second dose) of the same compound?
Answer: The value was 77.50 g.

Question: And the “Mean Paw pressure withdrawal threshold” value ([5]; 30 mg/kg orally twice daily, day 13 post surgery (last dose), 3 hours after second dose)?
Answer: The value was 79.17 g.

Question: And the “reversing mechanical hyperalgesia (in words)” value ([5]; CCI model, 30 mg/kg orally, twice daily throughout development of hyperalgesia)?
Answer: Its value is “acutely effective”.

Question: What about the “Mean Paw pressure withdrawal threshold” value ([5]; day 15 post surgery, after end of 30 mg/kg twice daily treatment (last dose day 13)) of the same compound?
Answer: The value was 60.83 g.

Question: Which results are given for `CC(C)(C)Cn1c(Cc2cccs2)cc2cnc(C#N)nc21` [Compound A, 7-(2,2-Dimethyl-propyl)-6-thiophen-2-ylmethyl-7.H.-pyrrolo[2,3-.d.]pyrimidine-2-carbonitrile]?
Answer: cathepsin S inhibitory activity (in words) (cathepsin S [6]): mixed cathepsin S/K inhibitory activity; cathepsin K inhibitory activity (in words) (cathepsin K): mixed cathepsin S/K inhibitory activity; effect on established mechanical hyperalgesia ([3]; Cmpd A 3 mg/kg single oral dose, 1 hr): 1.32; effect on established mechanical hyperalgesia ([3]; Cmpd A 3 mg/kg single oral dose, 3 hrs): 3.64; effect on established mechanical hyperalgesia ([3]; Cmpd A 3 mg/kg single oral dose, 6 hrs): −1.06; effect on established mechanical hyperalgesia ([3]; Cmpd A 10 mg/kg single oral dose, 1 hr): 8.63; effect on established mechanical hyperalgesia ([3]; Cmpd A 10 mg/kg single oral dose, 3 hrs): 52.94; effect on established mechanical hyperalgesia ([3]; Cmpd A 10 mg/kg single oral dose, 6 hrs): 17.63; effect on established mechanical hyperalgesia ([3]; Cmpd A 30 mg/kg single oral dose, 1 hr): 31.15; effect on established mechanical hyperalgesia ([3]; Cmpd A 30 mg/kg single oral dose, 3 hrs): 68.32; effect on established mechanical hyperalgesia ([3]; Cmpd A 30 mg/kg single oral dose, 6 hrs): 23.05; D50 for reversal of hyperalgesia ([3]; Seltzer model, single oral dose): 3 to 10 mg/kg
